The experiment has as its target T1, Mer (Homo sapiens, UniProt Q12866).
T1 sequence (Q12866 21-999): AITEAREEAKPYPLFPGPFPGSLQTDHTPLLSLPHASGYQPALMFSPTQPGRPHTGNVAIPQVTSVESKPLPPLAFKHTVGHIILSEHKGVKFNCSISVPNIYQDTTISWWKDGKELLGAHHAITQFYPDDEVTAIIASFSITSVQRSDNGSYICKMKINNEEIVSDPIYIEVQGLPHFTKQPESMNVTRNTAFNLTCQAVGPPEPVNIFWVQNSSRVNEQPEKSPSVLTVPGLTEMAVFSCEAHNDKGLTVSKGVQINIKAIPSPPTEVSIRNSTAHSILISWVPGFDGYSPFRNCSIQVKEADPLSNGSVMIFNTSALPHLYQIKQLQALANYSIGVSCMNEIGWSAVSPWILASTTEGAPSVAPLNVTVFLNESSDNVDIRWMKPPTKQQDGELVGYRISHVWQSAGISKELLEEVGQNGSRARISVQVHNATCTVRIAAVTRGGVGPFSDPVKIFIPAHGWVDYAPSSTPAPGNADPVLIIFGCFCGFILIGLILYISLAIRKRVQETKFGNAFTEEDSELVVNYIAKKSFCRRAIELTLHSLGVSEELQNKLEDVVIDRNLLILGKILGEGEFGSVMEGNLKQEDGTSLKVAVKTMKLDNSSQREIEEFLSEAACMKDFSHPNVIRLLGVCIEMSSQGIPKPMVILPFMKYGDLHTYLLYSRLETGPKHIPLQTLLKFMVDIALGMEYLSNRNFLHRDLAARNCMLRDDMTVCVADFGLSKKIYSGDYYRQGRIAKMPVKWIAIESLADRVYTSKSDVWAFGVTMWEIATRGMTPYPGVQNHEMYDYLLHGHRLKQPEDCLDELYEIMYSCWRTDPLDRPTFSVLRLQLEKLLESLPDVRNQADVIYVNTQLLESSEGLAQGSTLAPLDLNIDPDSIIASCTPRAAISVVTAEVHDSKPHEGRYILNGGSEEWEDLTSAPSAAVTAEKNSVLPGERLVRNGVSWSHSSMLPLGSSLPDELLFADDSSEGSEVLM
As to the kind of experiment: Mer IC50. It counts as biochemical. Conditions: Table 2, compounds of General Procedure E.

This is an account of results in patent US9771330B2, “Pyrimidine compounds for the treatment of cancer” (The University of North Carolina at Chapel Hill, priority 2012, dated 2017).

As a reminder, the IC50 is the midpoint of a concentration-inhibition curve. A higher IC50 goes with weaker potency. Compound `N[C@H]1CCCCNc2nc(ncc2C(=O)NCC2CCOCC2)NCCCCCCNC1=O` [UNC2705A] registered an IC50 of less than 10 nM.
